For 9 compounds, GI50 and TGI results are on record in PubChem BioAssay (NCI).

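All cell lines were grown in 96-well plates and treated with compound for 48 hours. GI50 marks 50% less growth. The concentration for full growth arrest is given as TGI.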 Some results are limits rather than exact numbers.

As a reminder, the GI50 is the concentration giving 50% growth inhibition. What is called TGI is the concentration giving total growth inhibition. A higher TGI goes with less potent growth arrest.

Test systems include A549 NSCLC; EKVX NSCLC; A498 renal; DU-145 prostate; OVCAR-5 ovarian; K-562 leukemia; PC-3 prostate; HS 578T breast; MCF7 breast; HOP-92 NSCLC.
Test in all cases: DTP human tumour cell line panel, 48 h

For the compound `COc1cc(OC)cc(Oc2cnc3cc(N)cc(N)c3n2)c1`, the GI50 in the experiment with A549 NSCLC is 22.8 µM; with EKVX NSCLC it was 18.5 µM; with A498 renal it was 11.8 µM; in the experiment with DU-145 prostate, 17.6 µM; in the experiment on OVCAR-5 ovarian, 15.5 µM; in the experiment with K-562 leukemia it was 20.2 µM. Further, the GI50 in the experiment on PC-3 prostate is 24.7 µM; in the experiment on HS 578T breast it was 24.7 µM; in the experiment with MCF7 breast, 20.5 µM. For the same compound, the TGI was greater than 100 µM in the experiment on A549 NSCLC; 46.2 µM with EKVX NSCLC; 39.9 µM in the experiment on A498 renal; 38.5 µM in the experiment with DU-145 prostate; 30.4 µM with OVCAR-5 ovarian; 46.8 µM in the experiment on K-562 leukemia. The total growth inhibition concentration (TGI) worked out at 56 µM in the experiment on PC-3 prostate, 87.8 µM with HS 578T breast and 49.3 µM in the experiment with MCF7 breast.

Regarding `O=Cc1cccc2ccc3ccccc3c12`, the TGI in the experiment with A549 NSCLC was 85.3 µM; in the experiment on A498 renal, 62.7 µM; in the experiment on DU-145 prostate, greater than 100 µM; in the experiment with PC-3 prostate, 55.5 µM; in the experiment on HS 578T breast, 54.7 µM; in the experiment on MCF7 breast, 37.4 µM.

As to `COC1=CC(c2ccc[nH]2)=N/C1=C\c1[nH]c(C)c(C(=O)CCC(=O)Oc2ccc3c(c2)CCC2C3CC[C@]3(C)[C@@H](O)CC[C@@H]23)c1C` (stereo not given in full), the GI50 was 2.47 µM with A549 NSCLC; 1.87 µM in the experiment on A498 renal; 3.54 µM in the experiment with DU-145 prostate; 5.47 µM in the experiment on OVCAR-5 ovarian; 3.8 µM in the experiment with PC-3 prostate; 3.17 µM in the experiment on HS 578T breast. Also, the results for the GI50 in the experiment with HOP-92 NSCLC and in the experiment with MCF7 breast were 1.45 µM and 0.917 µM, respectively. The TGI was 9.18 µM with A549 NSCLC; 8.82 µM in the experiment with A498 renal; greater than 100 µM with DU-145 prostate; greater than 100 µM with OVCAR-5 ovarian; greater than 100 µM in the experiment on PC-3 prostate; greater than 100 µM with HS 578T breast. For the same compound, the TGI is 4.39 µM in the experiment with HOP-92 NSCLC and greater than 100 µM in the experiment on MCF7 breast.

Take `Cc1ccc([Se](=C(C(=O)c2ccccc2)C(=O)c2ccccc2)c2ccc(C)cc2)cc1`: the TGI in the experiment with A549 NSCLC is greater than 100 µM; in the experiment on A498 renal, 49 µM; in the experiment on DU-145 prostate, greater than 100 µM; in the experiment with OVCAR-5 ovarian, greater than 100 µM; in the experiment on K-562 leukemia it was 84.5 µM; in the experiment with PC-3 prostate, 82.5 µM. The TGI was 72.9 µM with HS 578T breast, 53.4 µM with HOP-92 NSCLC and greater than 100 µM with MCF7 breast.

With `CC1CCC2C(C)C(=O)OC3OC4(C)CCC1C32OO4` (stereo not given), the TGI with A549 NSCLC, with EKVX NSCLC, in the experiment with A498 renal, with OVCAR-5 ovarian, in the experiment on K-562 leukemia and in the experiment with PC-3 prostate was greater than 100 µM throughout. Also, the TGI with HS 578T breast, in the experiment on HOP-92 NSCLC and in the experiment on MCF7 breast was greater than 100 µM each time. Also, the GI50 in the experiment with A498 renal, in the experiment with OVCAR-5 ovarian, in the experiment with HS 578T breast, in the experiment with HOP-92 NSCLC and in the experiment with MCF7 breast was greater than 100 µM in each case.

For `O=[N+]([O-])c1ccc(/C=C/c2nc3ccc(Cl)cc3[nH]2)cc1`, the GI50 in the experiment with A549 NSCLC is 37.8 µM; in the experiment with EKVX NSCLC, greater than 100 µM; with A498 renal, 13.9 µM; in the experiment on DU-145 prostate, 19.4 µM; in the experiment on OVCAR-5 ovarian, greater than 100 µM; in the experiment with K-562 leukemia, 5.99 µM. Also, the GI50 with PC-3 prostate is 21.8 µM; in the experiment with HS 578T breast, 68.2 µM; with MCF7 breast, 21.5 µM. For the same compound, the TGI with A549 NSCLC is greater than 100 µM; with EKVX NSCLC it was greater than 100 µM; in the experiment with A498 renal it was 44.2 µM; in the experiment on DU-145 prostate, 66.6 µM; in the experiment on OVCAR-5 ovarian, greater than 100 µM; in the experiment on K-562 leukemia it was greater than 100 µM. Also, the TGI in the experiment on PC-3 prostate, in the experiment with HS 578T breast and in the experiment with MCF7 breast was greater than 100 µM each time.

On to `CCCCCCCCCCCCCC[n+]1ccccc1`, for which the GI50 in the experiment with A549 NSCLC is 1.22 µM; in the experiment on A498 renal, 0.717 µM; in the experiment with DU-145 prostate, 1.17 µM; in the experiment with OVCAR-5 ovarian it was 0.733 µM; in the experiment with K-562 leukemia, 0.357 µM; in the experiment with PC-3 prostate, 0.204 µM. The GI50 with HS 578T breast is 1.59 µM; in the experiment on HOP-92 NSCLC, 0.144 µM; in the experiment with MCF7 breast it was 0.489 µM. For the same compound, the TGI in the experiment on A549 NSCLC came to 2.84 µM; with A498 renal, 3.57 µM; in the experiment on DU-145 prostate, 2.85 µM; in the experiment on OVCAR-5 ovarian it was 2.35 µM; in the experiment with K-562 leukemia it was 6.25 µM; in the experiment on PC-3 prostate, 0.774 µM. Besides, the TGI in the experiment with HS 578T breast is 5.13 µM; in the experiment on HOP-92 NSCLC, 0.841 µM; in the experiment with MCF7 breast, 2.66 µM.

For the compound `COc1ccc(/C=C/C(=O)c2c(O)ccc3c(C)c(C(=O)O)oc23)cc1`, the GI50 with A549 NSCLC was 91.9 µM; in the experiment with EKVX NSCLC, greater than 100 µM; in the experiment with A498 renal, 14.9 µM; in the experiment with DU-145 prostate, greater than 100 µM; in the experiment on OVCAR-5 ovarian it was greater than 100 µM; in the experiment with K-562 leukemia, 36.2 µM. The GI50 was 66 µM in the experiment on PC-3 prostate, 39.7 µM with HS 578T breast and 28.1 µM with MCF7 breast. Further, the TGI in the experiment with A549 NSCLC was greater than 100 µM; with EKVX NSCLC it was greater than 100 µM; in the experiment on A498 renal, 67.7 µM; with DU-145 prostate it was greater than 100 µM; in the experiment with OVCAR-5 ovarian, greater than 100 µM; in the experiment on K-562 leukemia it was greater than 100 µM. The TGI with PC-3 prostate, with HS 578T breast and with MCF7 breast was greater than 100 µM throughout.

For `COc1cc(-c2cc3ncccc3c3nc(OCCN(C)C)c4cccnc4c23)cc(OC)c1OC`, the GI50 was 0.346 µM in the experiment with A549 NSCLC; 0.513 µM in the experiment on EKVX NSCLC; 0.5 µM with DU-145 prostate; 1.34 µM with OVCAR-5 ovarian; 0.339 µM with K-562 leukemia; 0.731 µM in the experiment on PC-3 prostate. For the same compound, the GI50 is 1.5 µM with HS 578T breast, 1.1 µM in the experiment with HOP-92 NSCLC and 0.389 µM in the experiment on MCF7 breast. Besides, the TGI was 1.54 µM with A549 NSCLC; 3.24 µM in the experiment with EKVX NSCLC; greater than 100 µM in the experiment on DU-145 prostate; 3.68 µM with OVCAR-5 ovarian; 4.63 µM in the experiment on K-562 leukemia; greater than 100 µM with PC-3 prostate. Moreover, the TGI in the experiment on HS 578T breast was 14.9 µM; in the experiment with HOP-92 NSCLC, 3.2 µM; in the experiment with MCF7 breast it was 14.8 µM.
